The values that follow are results of earlier work, collected in US7939102B2, “Controlled release formulation of lamotrigine” (Torrent Pharmaceuticals Ltd., priority 2003, dated 2011).

Test in data set [1]: not given
This is another data set of the same source.

A further data set concerns seizures. The note with it: acute and chronic studies in humans (Betts et al, 1991).

The structures appear in SMILES notation.

Take `Nc1nnc(-c2cccc(Cl)c2Cl)c(N)n1` [lamotrigine, 3,5-diamino-6(2,3-dichlorophenyl)-1,2,4-triazine]: the “dose dependence of plasma concentrations” value (Ramsay RE, 1991) is given as “vary linearly with the dose”. The “increase of plasma concentrations with concomitant sodium valproate” value (valproate reduces hepatic clearance, for a given dose) is given as “approximately two fold”. For the same compound, the “plasma levels at which side effects were reported” value in data set [1] (Binnie et al., 1987, side effects only in patients above this level) is “above 3 μg/ml”. The “incidence of side effects (dizziness, ataxia, diplopia, somnolence, headache, asthenia)” value in data set [1] (Ramsay RE, 1991) is listed as “around 10%”. Also, the “patients reporting headache and ataxia” value in data set [1] (first 18 weeks of treatment, at >10 μg/ml) is 100%. Further, the “patients reporting nausea and vomiting” value in data set [1] (first 18 weeks of treatment, mean concentration of 6.00 to 7.99 μg/ml) is given as 16.7%. Also, in data set [1] (placebo-controlled trials), the “discontinuation of therapy due to rash” value is on record as 1% and the patients with rash is 10%. In addition, the “patients removed from clinical trials because of adverse experiences” value in data set [1] (rash, nausea/vomiting, CNS-related events) is recorded as 8.6%. Further, the “lamotrigine levels effective in controlling seizures” value with seizures is 1 to 3 µg/mL.
